Data from patent US11912668B2, “GCN2 and perk kinase inhibitors and methods of use thereof” (Deciphera Pharmaceuticals, LLC, priority 2020, dated 2024).

Columns and labels:
GCN2 kinase = GCN2 kinase (Homo sapiens (Human), UniProt Q9P2K8); assay: Biochemical assay for GCN2 (TR-FRET kinase activity assay); conditions: 1 mM ATP, 3-hour incubation
Outline: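 TR-FRET assay with 2 nM GCN2, 130 nM GFP-eIF2α substrate, 0.2 mg/mL E. coli tRNA and 1 mM ATP; compounds (0.5% DMSO) reacted 3 h. Stopped with 20 mM EDTA plus 2 nM Tb-anti-peIF2α (pSer52), 60 min RT; 520/490 ratio converted to % inhibition, IC50 from four-parameter fit.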

PERK kinase = PERK kinase (Homo sapiens (Human), UniProt Q9NZJ5); assay: Biochemical assay for PERK (coupled pyruvate kinase/lactate dehydrogenase assay); conditions: 1 mM ATP, rate from 2-3 h time frame
Outline: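 Coupled pyruvate kinase/lactate dehydrogenase readout of ATP hydrolysis via NADH oxidation (A340), 10 nM PERK, 0.25 mg/mL myelin basic protein, 1 mM ATP, pH 7.5 Tris/MgCl2 buffer, 1% DMSO. Absorbance followed 6 h at 30° C; rate from the 2-3 h window, normalised to no-compound and known-inhibitor controls, IC50 fitted.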

CCRF-CEM leukemia cells = assay: CCRF-CEM ASNase cell proliferation assay, phenotypic assay for cellular inhibition of GCN2; assay type: cell-based; conditions: Homo sapiens; ASNase treated CCRF-CEM cells, 1 mU/mL ASNase, 72 h
Method: CCRF-CEM leukemia cells (catalog #CCL-116) were obtained from the American Type Culture Collect (ATTC, Manassas, VA). Cells were grown in RPMI-1640 medium supplemented with 10% heat-inactivated fetal bovine serum (Invitrogen, Carlsbad, CA) and 1% Penicillin/Streptomycin/L-Glutamine at 37° C., 5% CO2, and 95% humidity. Cells were expanded until reaching one million cells per mL at which time they are subcultured or harvested for assay use. Ten thousand cells per well in 200 μL RPMI-1640 supplemented with 10% heat-inactivated fetal bovine serum and 1% Penicillin/Streptomycin were dispensed into a 96-well black clear bottom plate. A serial dilution of test compound and 1 mU/mL ASNase was added in triplicate and plates were incubated for 72 h at 37° C., 5% CO2, and 95% humidity. At the end of the incubation, 40 μL of a […] solution of resazurin (Sigma, St. Louis, MO) in PBS was added to each well of the plate and plates were incubated for an additional 6 h at 37° C., 5% CO2, and 95% humidity. Plates were read on a Synergy2 or equivalent reader (Biotek, Winooski VT) using an excitation of 540 nm and an emission of 600 nm. Data was analyzed using GraphPad Prism software (GraphPad, San Diego, CA) to calculate IC50 values.

[1] = system: phospho-GCN2 (Thr899) in HCT116 colorectal cancer cells; assay: HCT116 amino acid starved (-AA) phospho-GCN2 assay (Western blot); assay type: cell-based; conditions: Homo sapiens, HCT-116, 4 h, read-out: HCT116-AA pGCN2 Western Blot
Method: (§1) HCT116 colorectal cancer cells (catalog #CCL-247) were obtained from the American Type Culture Collect (ATTC, Manassas, VA). Briefly, cells were grown in RPMI 1640 supplemented with 10% heat inactivated fetal bovine serum (Invitrogen, Carlsbad, CA) and 1% Penicillin/Streptomycin/L-Glutamine at 37° C., 5% CO2, and 95% humidity. Cells were expanded until reaching 70-95% confluency at which point they were subcultured or harvested for assay use. Cells were seeded in 12-well culture plate at five hundred thousand cells per well in 1 mL complete growth medium and incubated overnight at 37° C., 5% CO2, and 95% humidity. The next day each well was replaced with 1 mL Earle's Balanced Salt Solution (EBSS, Invitrogen, Carlsbad, CA) supplemented with 10% Dialyzed Fetal Bovine Serum, 5.5 mM Glucose, 1% Penicillin/Streptomycin and 1% Vitamin solution (thermo #11120052). A serial dilution of test compound was dispensed into well. Plates were incubated for 4 h at 37° C., 5% CO2, and 95% humidity. At the end of the incubation, cells were washed with PBS supplemented with 1× Halt protease inhibitor, 1× Halt phosphatase inhibitor, 1× Sigma phosphatase inhibitor cocktail 2 and 1×EDTA and then lysed with M-PER Mammalian Protein Extraction Reagent supplemented with 3× of the inhibitor mix as described above. Cell lysates were sonicated with water bath sonicator (Qsonica, Newtown, CT) and supernatants were boiled with SDS buffer and reducing agent. Western blot was performed on each lysate to quantify phospho-GCN2 (Thr899), total GCN2, ATF4 and beta-Actin. Membranes were imaged with LI-COR Odyssey CLx Imaging System (LI-COR, Lincoln, NE). Data were analyzed using GraphPad Prism software (GraphPad, San Diego, CA) to calculate IC50 values.

[2] = system: ATF4 in HCT116 colorectal cancer cells; assay: HCT116 amino acid starved (-AA) ATF4 assay (Western blot); assay type: cell-based; conditions: Homo sapiens, HCT-116, 4 h
Method: as §1

[3] = system: ATF4 in CCRF-CEM leukemia cells (PERK); assay: CCRF-CEM TG ATF4 ELISA, phenotypic assay for cellular inhibition of PERK preactivated by thapsigargin; assay type: cell-based; conditions: Homo sapiens; Thapsigargin (1 μM) stimulated CCRF-CEM cells
Method: CCRF-CEM leukemia cells (catalog #CCL-116) were obtained from the American Type Culture Collection (ATTC, Manassas, VA). Briefly, cells were grown in RPMI-1640 medium supplemented with 10% heat-inactivated fetal bovine serum (Invitrogen, Carlsbad, CA) and 1% Penicillin/Streptomycin/L-Glutamine at 37° C., 5% CO2, and 95% humidity. Cells were expanded until reaching one million cells per mL at which time they were subcultured or harvested for assay use. One million five hundred thousand cells per well in 1 mL complete growth medium were dispensed into 12-well plates and incubated overnight. A serial dilution of test compound was added and cells were incubated at 37° C., 5% CO2, and 95% for three hours, then 1 μM thapsigargin was added and cells were incubated for an additional hour at 37° C., 5% CO2, and 95%. Cells were lysed then ATF4 levels were measured using an ELISA assay (Proteintech, Rosemont, IL). Absorbance was measured at 450 nm and 544 nM using a Synergy2 or equivalent reader (Biotek, Winooski VT). Data was analyzed using PRISM software (Graphpad, San Diego, CA) to calculate IC50 values.

GCN2 kinase, sequence (Q9P2K8 whole entry): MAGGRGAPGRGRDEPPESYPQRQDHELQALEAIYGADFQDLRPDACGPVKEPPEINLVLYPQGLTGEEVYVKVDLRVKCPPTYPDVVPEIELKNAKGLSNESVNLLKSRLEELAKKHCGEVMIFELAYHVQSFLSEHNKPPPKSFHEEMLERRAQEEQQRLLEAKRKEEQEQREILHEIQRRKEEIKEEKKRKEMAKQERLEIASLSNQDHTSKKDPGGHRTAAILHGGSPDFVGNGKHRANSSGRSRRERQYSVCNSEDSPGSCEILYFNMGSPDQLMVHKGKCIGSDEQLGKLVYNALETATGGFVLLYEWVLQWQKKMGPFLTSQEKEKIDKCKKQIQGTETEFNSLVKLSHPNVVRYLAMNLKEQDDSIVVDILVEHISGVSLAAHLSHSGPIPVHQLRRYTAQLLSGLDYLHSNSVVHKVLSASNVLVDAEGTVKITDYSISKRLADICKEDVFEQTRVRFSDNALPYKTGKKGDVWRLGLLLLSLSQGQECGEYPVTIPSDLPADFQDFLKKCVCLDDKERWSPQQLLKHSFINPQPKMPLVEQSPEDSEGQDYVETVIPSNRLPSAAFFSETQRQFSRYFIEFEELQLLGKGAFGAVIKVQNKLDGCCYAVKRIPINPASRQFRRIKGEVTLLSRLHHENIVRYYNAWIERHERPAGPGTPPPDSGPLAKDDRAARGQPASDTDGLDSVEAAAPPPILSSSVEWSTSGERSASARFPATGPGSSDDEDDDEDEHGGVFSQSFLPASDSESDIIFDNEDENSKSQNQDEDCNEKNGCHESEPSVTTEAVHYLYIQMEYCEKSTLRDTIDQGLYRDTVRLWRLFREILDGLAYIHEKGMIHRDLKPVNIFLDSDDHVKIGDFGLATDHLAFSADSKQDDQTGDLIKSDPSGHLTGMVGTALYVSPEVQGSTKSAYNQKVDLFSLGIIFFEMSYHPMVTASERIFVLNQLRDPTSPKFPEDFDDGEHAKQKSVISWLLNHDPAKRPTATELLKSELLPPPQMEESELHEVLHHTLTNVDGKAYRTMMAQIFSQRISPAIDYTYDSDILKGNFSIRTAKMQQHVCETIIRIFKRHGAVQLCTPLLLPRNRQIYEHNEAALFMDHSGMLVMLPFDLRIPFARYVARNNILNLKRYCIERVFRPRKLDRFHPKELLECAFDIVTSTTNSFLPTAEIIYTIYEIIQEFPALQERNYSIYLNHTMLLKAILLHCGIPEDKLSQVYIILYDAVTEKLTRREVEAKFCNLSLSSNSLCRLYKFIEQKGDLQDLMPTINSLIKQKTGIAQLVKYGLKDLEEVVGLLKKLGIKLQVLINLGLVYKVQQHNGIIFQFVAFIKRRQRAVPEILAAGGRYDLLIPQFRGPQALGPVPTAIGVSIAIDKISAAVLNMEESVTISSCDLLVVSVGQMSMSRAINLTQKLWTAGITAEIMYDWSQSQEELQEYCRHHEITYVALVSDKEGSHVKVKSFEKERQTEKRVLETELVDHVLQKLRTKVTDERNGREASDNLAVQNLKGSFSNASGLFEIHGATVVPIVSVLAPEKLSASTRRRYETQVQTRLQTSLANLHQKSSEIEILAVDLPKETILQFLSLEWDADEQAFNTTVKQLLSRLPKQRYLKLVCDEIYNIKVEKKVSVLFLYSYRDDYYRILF
PERK kinase, sequence (Q9NZJ5 other isoform, or with tags, fused parts or gaps): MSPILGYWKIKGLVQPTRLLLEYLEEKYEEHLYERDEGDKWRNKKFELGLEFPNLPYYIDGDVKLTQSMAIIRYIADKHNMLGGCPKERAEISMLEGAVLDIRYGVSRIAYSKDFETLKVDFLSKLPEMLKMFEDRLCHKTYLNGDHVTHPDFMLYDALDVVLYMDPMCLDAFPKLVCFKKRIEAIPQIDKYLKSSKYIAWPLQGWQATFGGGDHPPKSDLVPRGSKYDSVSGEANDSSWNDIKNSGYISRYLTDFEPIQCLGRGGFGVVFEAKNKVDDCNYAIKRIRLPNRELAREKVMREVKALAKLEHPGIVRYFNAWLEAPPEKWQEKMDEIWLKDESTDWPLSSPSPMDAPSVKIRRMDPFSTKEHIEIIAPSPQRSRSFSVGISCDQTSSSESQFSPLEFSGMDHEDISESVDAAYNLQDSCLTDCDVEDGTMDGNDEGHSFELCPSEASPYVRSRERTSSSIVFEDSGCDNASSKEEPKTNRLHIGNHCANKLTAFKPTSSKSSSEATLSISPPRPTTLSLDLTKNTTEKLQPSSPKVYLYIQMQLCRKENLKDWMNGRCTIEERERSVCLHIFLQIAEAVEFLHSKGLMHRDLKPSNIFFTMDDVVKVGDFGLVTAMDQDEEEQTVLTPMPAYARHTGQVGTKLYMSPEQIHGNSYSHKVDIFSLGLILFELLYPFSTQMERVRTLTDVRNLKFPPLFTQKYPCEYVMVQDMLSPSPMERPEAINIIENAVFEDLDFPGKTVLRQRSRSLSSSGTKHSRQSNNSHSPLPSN

Structure (SMILES) | IC50 (GCN2 kinase) [nM] | IC50 (PERK kinase) [nM] | IC50 (CCRF-CEM leukemia cells) [nM] | IC50 [1] [nM] | IC50 [2] [nM] | IC50 [3] [nM]
CNc1cc2nc(C)c(-c3cc(F)cc(NS(=O)(=O)c4cc(Cl)cnc4OC)c3)cc2cn1 [Example 23] | ≤ 100 | ≤ 100 | 100 to 500 | ≤ 100 | ≤ 100 | 1000 to 10000
CNc1ncc2cc(-c3cc(NS(=O)(=O)c4cc(Cl)cnc4OC)cc(F)c3C)c(C)nc2n1 [Example 26] | ≤ 100 | ≤ 100 | ≤ 100 | ≤ 100 | ≤ 100 | 1000 to 10000
CNc1ncc2cc(-c3c(F)ccc(NS(=O)(=O)c4cc(Cl)cnc4OC)c3F)c(C)nc2n1 [Example 27] | ≤ 100 | ≤ 100 | ≤ 100 | ≤ 100 | ≤ 100 | 1000 to 10000
CNc1ncc2cc(-c3cc(NS(=O)(=O)c4cc(Cl)cnc4OC)ccc3C)cnc2n1 [Example 30] | ≤ 100 | 100 to 500 | ≤ 100 | ≤ 100 | ≤ 100 | 1000 to 10000
COc1ncc(Cl)cc1S(=O)(=O)Nc1cccc(-c2ccc3nc(N)ncc3c2)c1F [Example 33] | ≤ 100 | ≤ 100 | 100 to 500 | ≤ 100 | ≤ 100 | 1000 to 10000
COc1ncc(Cl)cc1S(=O)(=O)Nc1cccc(-c2ccc3nc(NC(C)=O)ncc3c2)c1F [Example 35] | ≤ 100 | 100 to 500 | ≤ 100 | ≤ 100 | ≤ 100 | 1000 to 10000
CNc1ncc2cc(-c3cccc(NS(=O)(=O)c4cc(Cl)cnc4OC)c3F)ccc2n1 [Example 36] | ≤ 100 | ≤ 100 | ≤ 100 | ≤ 100 | ≤ 100 | 1000 to 10000
CNc1ncc2cc(-c3cc(NS(=O)(=O)c4cc(Cl)cnc4OC)ccc3F)c(C)nc2n1 [Example 38] | ≤ 100 | 100 to 500 | 100 to 500 | ≤ 100 | 100 to 500 | 1000 to 10000
CNc1ncc2cc(-c3cc(NS(=O)(=O)c4cc(Cl)cnc4OC)ccc3F)c(NC)nc2n1 [Example 39] | ≤ 100 | 100 to 500 | 100 to 500 | ≤ 100 | 100 to 500 | 1000 to 10000
CNc1cc2nc(C)c(-c3cc(NS(=O)(=O)c4cc(Cl)cnc4OC)ccc3F)cc2cn1 [Example 44] | ≤ 100 | ≤ 100 | ≤ 100 | ≤ 100 | ≤ 100 | 1000 to 10000
CNc1cc2nc(C)c(-c3cccc(NS(=O)(=O)c4cc(Cl)cc(CO)c4Cl)c3F)cc2cn1 [Example 45] | ≤ 100 | ≤ 100 | ≤ 100 | ≤ 100 | ≤ 100 | 100 to 500
CNc1ncc2cc(-c3cc(NS(=O)(=O)c4cc(Cl)cnc4OC)cc(F)c3F)c(C)nc2n1 [Example 48] | ≤ 100 | 100 to 500 | 100 to 500 | ≤ 100 | ≤ 100 | 1000 to 10000
